This is an account of results in US8653278B2, “Isoform selective HDAC inhibitors” (Georgetown University, priority 2006, dated 2014).

Entries after “also recorded” stand apart in the source; their conditions may differ. Read-outs that look alike come from different tables or passages of the source. Bounds are passed on as bounds.

For series [1], the system named is human normal primary skin fibroblasts (Hs-68). The experiment in a line: growth inhibition of normal cells Hs-68. The class given is cell-based. Particulars: Hs68. The protocol: (§1) One of characteristics of the HDAC inhibitors relates to their ability to inhibit the growth of transformed cells. The compounds capable of modifying histones in the cell were tested for their biological effects.

Series [2] has as its system T1, HDAC.
T1 construct: other: HDAC Fluor-Lys substrate; other: at concentrations of 1 μM
Put plainly: in vitro HDAC inhibitory activity, HDAC Fluor-Lys as substrate (BIOMOL). The series is classed as biochemical. Particulars: for IC50: read-out: IC50, concentration required to achieve 50% inhibition of HDAC activity. How it is done: The in vitro HDAC inhibitory activity of the synthesized compounds was determined by using HDAC Fluor-Lys as the substrate (BIOMOL). […] SAHA was used as a positive control.

Series [3] relates to human normal fibroblasts (NHP-5). Put plainly: growth inhibition of normal cells NHP-5. The series is classed as cell-based. Particulars: Fibroblast. The protocol:
as §1

Series [4] has as its system prostate cancer (PC-3), breast cancer (MCF-7), cervical cancer (HeLa), squamous carcinoma (SQ-20B). The experiment in a line: antiproliferative activity in cancer cell lines. The series is classed as cell-based. Particulars: PC-3, MCF-7, HeLa. How it is done:
as §1

For series [5], the system named is mouse model of Huntington's disease. Particulars: cited from earlier work.
In series [6] the test system is Plasmodium falciparum. Particulars: human malaria parasite Plasmodium falciparum; cited from earlier work.
For series [7], the target named is T2, HDAC8 (Homo sapiens, UniProt Q9BY41).
T2 sequence (Q9BY41 1-377): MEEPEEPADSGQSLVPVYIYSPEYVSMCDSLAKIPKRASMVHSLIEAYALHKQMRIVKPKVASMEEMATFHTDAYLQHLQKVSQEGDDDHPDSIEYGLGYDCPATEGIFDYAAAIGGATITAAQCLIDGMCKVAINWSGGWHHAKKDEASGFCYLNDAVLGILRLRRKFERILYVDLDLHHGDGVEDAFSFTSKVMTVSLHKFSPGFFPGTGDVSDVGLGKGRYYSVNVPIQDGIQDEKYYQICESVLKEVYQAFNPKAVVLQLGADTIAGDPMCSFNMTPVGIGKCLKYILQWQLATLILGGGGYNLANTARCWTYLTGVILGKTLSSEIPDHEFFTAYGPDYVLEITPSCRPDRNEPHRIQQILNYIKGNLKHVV
The experiment in a line: class I HDAC isoform activity, recombinant protein. The series is classed as biochemical. Particulars: after addition of 0.5 μM of the test compound. The source says: (§2) FIG. 10 depicts the effect of HDAC inhibitors, including selected compounds of the invention, on Class I HDAC isoform activities. Note that (a) denotes that HeLa nuclear extracts were used for immunoprecipitation (IP) with antibodies against HDAC 1-3; and (b) denotes that recombinant protein was used for HDAC 8. Note: TSA is trichostatin A.
(§3) To test whether the modified CAP region of the HDACIs is able to target specific HDAC isoform enzyme activity, the compounds were examined for class I HDAC isoform inhibitory activities using recombinant HDAC8 and immunoprecipitates of the other HDAC isoforms (HDAC 1, 2, 3) using nuclear extracts from HeLa cells. […] The data shown in FIG. 10 represent the HDAC inhibitory activity remaining after addition of 0.5 μM of the test compounds.

For series [8], the target named is T3, HDAC2 (Homo sapiens, UniProt Q92769).
T3 construct: endogenous in cells; host or cells: HeLa nuclear extract, immunoprecipitate
The experiment in a line: class I HDAC isoform activity, immunoprecipitate from HeLa nuclear extracts. The series is classed as biochemical. Particulars: 0.5 μM of the test compound.
Excerpt: as §2, §3

In series [9] the target is T4, HDAC1 (Homo sapiens, UniProt Q13547).
T4 construct: endogenous in cells; host or cells: HeLa nuclear extract, immunoprecipitate
The series is described as above. The series is classed as biochemical. Particulars: 0.5 μM of the test compound.
Excerpt: as §2, §3

Series [10] concerns the target T5, HDAC3 (Homo sapiens, UniProt O15379).
T5 construct: endogenous in cells; host or cells: HeLa nuclear extract, immunoprecipitate
The description is as above. The series is classed as biochemical. Particulars: after addition of 0.5 μM of the test compound.
Excerpt: as §2, §3

The test system of series [11] is HDAC. Particulars: read-out: reported IC50; literature value; cited from earlier work.
Series [12] concerns HDAC 1, 2, 3 and HDAC8. Put plainly: class I HDAC isoform panel, comparison across isoforms. The class given is biochemical. Particulars: 0.5 μM of the test compound; HDAC 1, 2, 3, 8. From the text:
FIG. 10 depicts the effect of HDAC inhibitors, including selected compounds of the invention, on Class I HDAC isoform activities. Note that (a) denotes that HeLa nuclear extracts were used for immunoprecipitation (IP) with antibodies against HDAC 1-3; and (b) denotes that recombinant protein was used for HDAC 8.

T3 sequence (Q92769 whole entry): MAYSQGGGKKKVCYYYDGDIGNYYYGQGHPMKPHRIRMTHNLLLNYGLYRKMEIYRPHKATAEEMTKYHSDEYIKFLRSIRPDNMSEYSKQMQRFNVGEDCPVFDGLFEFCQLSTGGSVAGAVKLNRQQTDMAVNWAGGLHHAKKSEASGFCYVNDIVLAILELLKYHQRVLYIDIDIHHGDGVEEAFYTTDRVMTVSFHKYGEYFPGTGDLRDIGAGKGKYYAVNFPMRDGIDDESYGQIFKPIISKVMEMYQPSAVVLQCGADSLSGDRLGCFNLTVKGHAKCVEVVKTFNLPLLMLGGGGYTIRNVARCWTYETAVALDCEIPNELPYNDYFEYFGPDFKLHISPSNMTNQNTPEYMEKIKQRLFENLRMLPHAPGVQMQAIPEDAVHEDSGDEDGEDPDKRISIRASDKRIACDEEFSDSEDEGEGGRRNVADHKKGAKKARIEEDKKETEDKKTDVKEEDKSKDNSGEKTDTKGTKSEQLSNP
T4 sequence (Q13547 whole entry): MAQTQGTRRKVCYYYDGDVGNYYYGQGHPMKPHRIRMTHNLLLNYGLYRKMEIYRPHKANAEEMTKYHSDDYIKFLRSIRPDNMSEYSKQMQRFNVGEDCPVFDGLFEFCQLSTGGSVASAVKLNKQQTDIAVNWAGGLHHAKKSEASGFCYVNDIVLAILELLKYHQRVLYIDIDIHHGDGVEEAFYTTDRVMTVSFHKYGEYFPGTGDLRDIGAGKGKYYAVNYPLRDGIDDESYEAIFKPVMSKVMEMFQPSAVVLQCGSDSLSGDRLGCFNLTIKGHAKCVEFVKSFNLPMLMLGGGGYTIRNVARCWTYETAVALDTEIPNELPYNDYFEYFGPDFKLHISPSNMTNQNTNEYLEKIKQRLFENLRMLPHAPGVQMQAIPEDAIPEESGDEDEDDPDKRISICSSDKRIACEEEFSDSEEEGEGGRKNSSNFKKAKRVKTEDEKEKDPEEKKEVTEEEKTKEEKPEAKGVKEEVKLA
T5 sequence (O15379 whole entry): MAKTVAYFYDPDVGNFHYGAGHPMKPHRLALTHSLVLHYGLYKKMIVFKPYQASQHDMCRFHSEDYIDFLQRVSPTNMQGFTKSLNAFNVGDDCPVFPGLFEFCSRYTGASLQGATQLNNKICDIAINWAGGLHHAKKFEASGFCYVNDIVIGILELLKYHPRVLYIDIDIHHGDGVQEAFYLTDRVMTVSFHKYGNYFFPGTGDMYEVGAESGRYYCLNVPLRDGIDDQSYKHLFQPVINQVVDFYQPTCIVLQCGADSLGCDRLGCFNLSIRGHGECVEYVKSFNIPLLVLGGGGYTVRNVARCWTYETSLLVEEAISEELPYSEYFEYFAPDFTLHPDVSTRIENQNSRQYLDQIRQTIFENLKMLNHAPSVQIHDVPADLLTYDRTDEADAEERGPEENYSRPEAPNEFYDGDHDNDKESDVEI
T5 sequence (Q9Y618 whole entry partner): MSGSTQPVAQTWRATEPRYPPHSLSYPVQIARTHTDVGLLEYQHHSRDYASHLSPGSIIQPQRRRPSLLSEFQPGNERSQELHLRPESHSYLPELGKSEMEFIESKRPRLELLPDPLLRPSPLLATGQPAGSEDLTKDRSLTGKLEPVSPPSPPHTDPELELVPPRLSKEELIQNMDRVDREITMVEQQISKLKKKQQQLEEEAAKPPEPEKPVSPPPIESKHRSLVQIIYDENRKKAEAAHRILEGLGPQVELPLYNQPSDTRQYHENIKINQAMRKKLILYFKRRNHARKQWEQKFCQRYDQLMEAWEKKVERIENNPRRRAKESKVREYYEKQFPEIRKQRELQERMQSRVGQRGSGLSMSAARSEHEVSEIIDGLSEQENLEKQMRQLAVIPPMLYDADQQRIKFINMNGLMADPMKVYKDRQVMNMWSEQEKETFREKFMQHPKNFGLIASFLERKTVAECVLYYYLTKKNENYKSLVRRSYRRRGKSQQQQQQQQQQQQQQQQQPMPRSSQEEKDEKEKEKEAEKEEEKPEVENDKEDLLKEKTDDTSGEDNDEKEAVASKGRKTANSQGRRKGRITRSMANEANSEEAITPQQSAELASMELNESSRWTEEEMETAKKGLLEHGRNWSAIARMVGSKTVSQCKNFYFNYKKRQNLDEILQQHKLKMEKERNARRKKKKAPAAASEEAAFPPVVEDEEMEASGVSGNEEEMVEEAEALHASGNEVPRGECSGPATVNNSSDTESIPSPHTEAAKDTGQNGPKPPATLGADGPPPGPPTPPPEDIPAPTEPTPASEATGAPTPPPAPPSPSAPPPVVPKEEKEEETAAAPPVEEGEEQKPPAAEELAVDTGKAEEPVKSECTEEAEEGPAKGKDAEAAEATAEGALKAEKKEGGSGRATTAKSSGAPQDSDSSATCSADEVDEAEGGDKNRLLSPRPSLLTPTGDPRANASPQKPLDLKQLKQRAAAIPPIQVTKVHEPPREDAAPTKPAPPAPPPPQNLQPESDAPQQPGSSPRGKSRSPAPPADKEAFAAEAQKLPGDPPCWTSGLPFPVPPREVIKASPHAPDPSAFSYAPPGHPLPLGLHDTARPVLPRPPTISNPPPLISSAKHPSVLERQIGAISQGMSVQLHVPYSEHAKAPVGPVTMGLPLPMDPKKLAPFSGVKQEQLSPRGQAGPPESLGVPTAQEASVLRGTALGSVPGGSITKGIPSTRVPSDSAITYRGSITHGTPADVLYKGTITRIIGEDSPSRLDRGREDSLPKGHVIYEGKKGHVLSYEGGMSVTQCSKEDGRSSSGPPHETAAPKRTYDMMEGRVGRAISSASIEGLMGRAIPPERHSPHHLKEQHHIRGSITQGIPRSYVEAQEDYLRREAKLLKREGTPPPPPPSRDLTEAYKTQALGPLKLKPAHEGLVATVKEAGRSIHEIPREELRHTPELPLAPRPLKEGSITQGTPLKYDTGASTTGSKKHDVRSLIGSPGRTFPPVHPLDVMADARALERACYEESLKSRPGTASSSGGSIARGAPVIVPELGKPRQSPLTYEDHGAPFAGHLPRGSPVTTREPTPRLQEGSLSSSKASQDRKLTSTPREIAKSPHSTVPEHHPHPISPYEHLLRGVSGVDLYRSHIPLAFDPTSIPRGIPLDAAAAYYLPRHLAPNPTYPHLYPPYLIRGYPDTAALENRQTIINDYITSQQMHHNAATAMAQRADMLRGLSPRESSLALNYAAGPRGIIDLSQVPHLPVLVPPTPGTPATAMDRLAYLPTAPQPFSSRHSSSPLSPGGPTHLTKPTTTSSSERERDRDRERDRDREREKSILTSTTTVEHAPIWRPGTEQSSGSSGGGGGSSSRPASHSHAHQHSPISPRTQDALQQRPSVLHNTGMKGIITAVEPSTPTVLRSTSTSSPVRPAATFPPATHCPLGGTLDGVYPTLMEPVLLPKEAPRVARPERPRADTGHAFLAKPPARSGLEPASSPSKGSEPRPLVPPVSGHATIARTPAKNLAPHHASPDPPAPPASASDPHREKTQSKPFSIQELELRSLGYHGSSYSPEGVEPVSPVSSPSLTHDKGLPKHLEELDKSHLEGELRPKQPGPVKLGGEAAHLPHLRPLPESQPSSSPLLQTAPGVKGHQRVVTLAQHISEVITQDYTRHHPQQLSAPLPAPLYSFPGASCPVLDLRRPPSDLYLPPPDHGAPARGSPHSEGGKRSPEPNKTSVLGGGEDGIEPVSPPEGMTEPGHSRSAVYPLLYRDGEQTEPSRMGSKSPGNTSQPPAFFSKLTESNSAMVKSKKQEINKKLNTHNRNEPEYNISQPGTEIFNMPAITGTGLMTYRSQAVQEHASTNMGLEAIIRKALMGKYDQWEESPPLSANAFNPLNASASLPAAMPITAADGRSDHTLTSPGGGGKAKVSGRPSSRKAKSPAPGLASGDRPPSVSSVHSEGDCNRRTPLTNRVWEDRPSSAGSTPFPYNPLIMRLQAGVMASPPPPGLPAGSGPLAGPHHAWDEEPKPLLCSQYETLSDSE

For `NCC(=O)Nc1ccccc1-c1ccc(NC(=O)CCCCCCC(=O)NO)cc1` [7a, octanedioic acid [2′-(2-amino-acetylamino)-biphenyl-4-yl]-amide hydroxyamide], the IC50 is over 500000 nM in series [1], 200 nM in series [2] (HDAC Fluor-Lys substrate) and over 500000 nM in series [3].
With `NC(Cc1ccccc1)C(=O)Nc1ccccc1-c1ccc(NC(=O)CCCCCCC(=O)NO)cc1` (stereo not drawn) [7b, octanedioic acid [2′-(2-amino-3-phenyl-propionylamino)-biphenyl-4-yl]-amide hydroxyamide], the values for the IC50 in series [1] and in series [3] were over 300000 nM and 80000 nM, respectively. Also, the “HDAC inhibitory activity (in words)” value in series [2] is “approximately equipotent in their activity to SAHA”. In addition, the “antiproliferative / growth inhibitory activity (in words)” value in series [4] is “good growth inhibitory activity”.
Take `O=C(CCCCCCC(=O)Nc1ccc(-c2ccccc2NC(=O)C2CCCN2)cc1)NO` (stereo not drawn) [7c, octanedioic acid hydroxyamide {2′-[(pyrrolidine-2-carbonyl)-amino]-biphenyl-4-yl}-amide]: the “HDAC inhibitory activity (in words)” value in series [2] (HDAC Fluor-Lys substrate) is listed as “approximately equipotent in their activity to SAHA”.
Turning to `NC(Cc1c[nH]c2ccccc12)C(=O)Nc1ccccc1-c1ccc(NC(=O)CCCCCCC(=O)NO)cc1` (stereo not drawn) [7d, octanedioic acid {2′-[2-amino-3-(1H-indol-3-yl)-propionylamino]-biphenyl-4-yl}-amide hydroxyamide], the IC50 in series [2] was 30 nM; in series [3], 100000 nM.
For `NC(Cc1ccc(O)cc1)C(=O)Nc1ccccc1-c1ccc(NC(=O)CCCCCCC(=O)NO)cc1` (stereo not drawn) [7e, octanedioic acid {2′-[2-amino-3-(4-hydroxy-phenyl)-propionylamino]-biphenyl-4-yl}-amide hydroxyamide], the IC50 in [2] (HDAC Fluor-Lys substrate) came to 50 nM.
In the case of `NCC(=O)Nc1ccccc1-c1ccc(NC(=O)CCCCCNC(=O)CS)cc1` [10a, 6-(2-mercapto-acetylamino)-hexanoic acid [2′-(2-amino-acetylamino)-biphenyl-4-yl]-amide], the IC50 in series [2] was 7000 nM.
Still for that read-out and setting: with `NC(Cc1ccccc1)C(=O)Nc1ccccc1-c1ccc(NC(=O)CCCCCNC(=O)CS)cc1` (stereo not drawn) [10b, 6-(2-Mercapto-acetylamino)-hexanoic acid [2′-(2-amino-3-phenyl-propionylamino)-biphenyl-4-yl]-amide] the figure was 3000 nM.
Consider `NC(Cc1c[nH]c2ccccc12)C(=O)Nc1ccccc1-c1ccc(NC(=O)CCCCCNC(=O)CS)cc1` (stereo not drawn) [10d, 6-(2-mercapto-acetylamino)-hexanoic acid {2′-[2-amino-3-(1H-indol-3-yl)-propionylamino]-biphenyl-4-yl}-amide], for which the “HDAC inhibitory activity at a fixed concentration (in words)” value in series [2] was “inactive”.
On to `NC(Cc1ccc(O)cc1)C(=O)Nc1ccccc1-c1ccc(NC(=O)CCCCCNC(=O)CS)cc1` (stereo not drawn) [10e, 6-(2-mercapto-acetylamino)-hexanoic acid {2′-[2-amino-3-(4-hydroxy-phenyl)-propionylamino]-biphenyl-4-yl}-amide], for which the “HDAC inhibitory activity at a fixed concentration (in words)” value in series [2] (at concentrations of 1 μM) is “inactive”.
Take `O=C(CCCCCCC(=O)Nc1ccccc1)NO` [SAHA, suberoylanilide hydroxamic acid]: in series [5] (mouse model of Huntington's disease), the motor impairment result is recorded as “improve dramatically the motor impairment”. The brain penetration entry in [5] (mouse, in vivo) was “penetrate into the brain”.
Take `COc1ccc(CCN(C)CCCC(C#N)(c2ccc(OC)c(OC)c2)C(C)C)cc1OC` (stereo not drawn) [Verapamil]: the “reversal of chloroquine resistance” value in [6] is recorded as “reverse chloroquine resistance”.
For the compound `Nc1ccccc1-c1csc(NC(=O)CCCCCCC(=O)NO)n1` [compound 16, octanedioic acid hydroxyamide [4-(2-amino-phenyl)-thiazol-2-yl]-amide], the “HDAC inhibitory activity (in words)” value in [2] (HDAC Fluor-Lys substrate) is recorded as “poorly active”.
For the compound `O=C(CCCCCCC(=O)Nc1nc(-c2ccccc2[N+](=O)[O-])cs1)NO` [compound 17, octanedioic acid hydroxyamide [4-(2-nitro-phenyl)-thiazol-2-yl]-amide], the IC50 in series [2] (HDAC Fluor-Lys substrate) amounted to 50 nM.
`O=C(CCCCCCC(=O)Nc1nc(-c2cccc([N+](=O)[O-])c2)cs1)NO` [compound 19, octanedioic acid hydroxyamide [4-(3-Nitro-phenyl)-thiazol-2-yl]-amide]: the remaining activity at 0.5 µM in series [7] and in [10] was over 30% in each case. The “inhibition of HDAC2 activity (in words)” value in series [8] was “strong tendency to inhibit”. The “inhibition of HDAC1 activity (in words)” value in [9] is “strong tendency to inhibit”. The “antiproliferative / growth inhibitory activity (in words)” value in [4] is recorded as “submicromolar activity”.
`CCOC(=O)Nc1cccc(-c2csc(NC(=O)CCCCCCC(=O)NO)n2)c1` [compound 22, {3-[2-(7-hydroxycarbamoyl-heptanoylamino)-thiazol-4-yl]-phenyl}-carbamic acid ethyl ester]: the IC50 in series [2] (HDAC Fluor-Lys substrate) stood at 5 nM. For the same compound, the “potency relative to trichostatin A” value in series [2] (IC50 compared with reported IC50 of trichostatin A) is on record as “approximately two-fold”. Moreover, the “antiproliferative / growth inhibitory activity (in words)” value in series [4] was “submicromolar activity; also recorded: impressive antiproliferative activity”.
In the case of `Nc1cccc(-c2csc(NC(=O)CCCCCCC(=O)NO)n2)c1` [compound 23, octanedioic acid hydroxyamide [4-(3-amino-phenyl)-thiazol-2-yl]-amide], the remaining activity at 0.5 µM in series [7] and in series [10] was over 30% each time. The “inhibition of HDAC2 activity (in words)” value in series [8] is recorded as “strong tendency to inhibit”. The “inhibition of HDAC1 activity (in words)” value in [9] is reported as “strong tendency to inhibit”. Further, the IC50 in series [2] (HDAC Fluor-Lys substrate) stood at 8 nM. Also, the “antiproliferative / growth inhibitory activity (in words)” value in [4] is listed as “submicromolar activity”.
Take trichostatin A: the IC50 in [11] is 12 nM. For the same compound, the “class I HDAC isoform inhibitory activity and selectivity (in words)” value in series [12] was “more effective for inhibiting HDACs 1 and 2”.
